Experimental data from the supplement of paper PMC10307832.

Assays:
Experiment in all cases: relative viability (nuclei count vs DMSO), 5 days (fraction); higher = more cells survive
Vorinostat = compound: O=C(CCCCCCC(=O)Nc1ccccc1)NO [Vorinostat]
Summary of the method: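 Viability here means nuclei in treated wells divided by nuclei in vehicle wells, reported as the median across plates. Only plates with control CV below 25% and at least one doubling passed. Lung cancer cell lines in 1536-well plates were exposed to five √10-spaced library-drug doses for 5 days and counted from 4× Hoechst images in MetaXpress.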

Vorinostat + Bortezomib = compound: O=C(CCCCCCC(=O)Nc1ccccc1)NO [Vorinostat] + CC(C)C[C@H](NC(=O)[C@H](Cc1ccccc1)NC(=O)c1cnccn1)B(O)O [Bortezomib] (partner 0.002 µM)
Summary of the method: (§1)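 A single step with final 0.05% Triton X-100, 1% formaldehyde and 1 ug/ml Hoechst fixed the cells and stained nuclei 5 days after treatment. Lung cancer cell lines in 1536-well plates had been treated by pin tool the day after seeding with one drug alone or a fixed anchor-drug dose plus five library-drug doses (not always all listed) in √10 steps, and nuclei were counted on 4× images. Relative viability is the ratio of nuclei in treated wells to nuclei in vehicle wells, taken as the median of duplicate plates.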

Vorinostat + Navitoclax = compound: O=C(CCCCCCC(=O)Nc1ccccc1)NO [Vorinostat] + CC1(C)CCC(c2ccc(Cl)cc2)=C(CN2CCN(c3ccc(C(=O)NS(=O)(=O)c4ccc(N[C@H](CCN5CCOCC5)CSc5ccccc5)c(S(=O)(=O)C(F)(F)F)c4)cc3)CC2)C1 [Navitoclax] (partner 0.5 µM)
Summary of the method: as §1

Vorinostat + Foretinib = compound: O=C(CCCCCCC(=O)Nc1ccccc1)NO [Vorinostat] + COc1cc2c(Oc3ccc(NC(=O)C4(C(=O)Nc5ccc(F)cc5)CC4)cc3F)ccnc2cc1OCCCN1CCOCC1 [Foretinib] (partner 0.25 µM)
Summary of the method: as §1

Vorinostat + Lapatinib = compound: O=C(CCCCCCC(=O)Nc1ccccc1)NO [Vorinostat] + CS(=O)(=O)CCNCc1ccc(-c2ccc3ncnc(Nc4ccc(OCc5cccc(F)c5)c(Cl)c4)c3c2)o1 [Lapatinib] (partner 2 µM)
Summary of the method: as §1

Vorinostat + Pictilisib = compound: O=C(CCCCCCC(=O)Nc1ccccc1)NO [Vorinostat] + CS(=O)(=O)N1CCN(Cc2cc3nc(-c4cccc5[nH]ncc45)nc(N4CCOCC4)c3s2)CC1 [Pictilisib] (partner 1 µM)
Summary of the method: as §1

Vorinostat + Crizotinib = compound: O=C(CCCCCCC(=O)Nc1ccccc1)NO [Vorinostat] + C[C@@H](Oc1cc(-c2cnn(C3CCNCC3)c2)cnc1N)c1c(Cl)ccc(F)c1Cl [Crizotinib] (partner 1 µM)
Summary of the method: as §1

Vorinostat + Linsitinib = compound: O=C(CCCCCCC(=O)Nc1ccccc1)NO [Vorinostat] + C[C@]1(O)C[C@@H](c2nc(-c3ccc4ccc(-c5ccccc5)nc4c3)c3c(N)nccn32)C1 [Linsitinib] (partner 1 µM)
Summary of the method: as §1

Vorinostat + Alpelisib = compound: O=C(CCCCCCC(=O)Nc1ccccc1)NO [Vorinostat] + Cc1nc(NC(=O)N2CCC[C@H]2C(N)=O)sc1-c1ccnc(C(C)(C)C(F)(F)F)c1 [Alpelisib] (partner 2 µM)
Summary of the method: as §1

Vorinostat + Olaparib = compound: O=C(CCCCCCC(=O)Nc1ccccc1)NO [Vorinostat] + O=C(c1cc(Cc2n[nH]c(=O)c3ccccc23)ccc1F)N1CCN(C(=O)C2CC2)CC1 [Olaparib] (partner 8 µM)
Summary of the method: as §1

Vorinostat + Luminespib = compound: O=C(CCCCCCC(=O)Nc1ccccc1)NO [Vorinostat] + CCNC(=O)c1noc(-c2cc(C(C)C)c(O)cc2O)c1-c1ccc(CN2CCOCC2)cc1 [Luminespib] (partner 0.01 µM)
Summary of the method: as §1

Vorinostat + OSI-027 = compound: O=C(CCCCCCC(=O)Nc1ccccc1)NO [Vorinostat] + COc1cccc2cc(-c3nc([C@H]4CC[C@H](C(=O)O)CC4)n4ncnc(N)c34)[nH]c12 [OSI-027] (partner 0.5 µM)
Summary of the method: as §1

Vorinostat + Tozasertib = compound: O=C(CCCCCCC(=O)Nc1ccccc1)NO [Vorinostat] + Cc1cc(Nc2cc(N3CCN(C)CC3)nc(Sc3ccc(NC(=O)C4CC4)cc3)n2)n[nH]1 [Tozasertib] (partner 0.1 µM)
Summary of the method: as §1

Vorinostat + Dasatinib = compound: O=C(CCCCCCC(=O)Nc1ccccc1)NO [Vorinostat] + Cc1nc(Nc2ncc(C(=O)Nc3c(C)cccc3Cl)s2)cc(N2CCN(CCO)CC2)n1 [Dasatinib] (partner 0.075 µM)
Summary of the method: as §1

Vorinostat + Phenformin = compound: O=C(CCCCCCC(=O)Nc1ccccc1)NO [Vorinostat] + N=C(N)NC(=N)NCCc1ccccc1 [Phenformin] (partner 250 µM)
Summary of the method: as §1

## IA-LM
Vorinostat; 0.253 µM
  relative viability: 0.976
Vorinostat; 0.8 µM
  relative viability: 0.723
Vorinostat; 1 µM, anchor plate
  relative viability: 0.963
Vorinostat; 2.53 µM
  relative viability: 0.349
Vorinostat; 8 µM
  relative viability: 0.0685
Vorinostat + Bortezomib; first compound 0.253 µM
  relative viability: 1.03
Vorinostat + Bortezomib; first compound 0.8 µM
  relative viability: 0.547
Vorinostat + Bortezomib; first compound 2.53 µM
  relative viability: 0.161
Vorinostat + Bortezomib; first compound 8 µM
  relative viability: 0.0471
Vorinostat + Navitoclax; first compound 0.253 µM
  relative viability: 0.791
Vorinostat + Navitoclax; first compound 0.8 µM
  relative viability: 0.597
Vorinostat + Navitoclax; first compound 2.53 µM
  relative viability: 0.235
Vorinostat + Navitoclax; first compound 8 µM
  relative viability: 0.0188
Vorinostat + Foretinib; first compound 0.253 µM
  relative viability: 1.17
Vorinostat + Foretinib; first compound 0.8 µM
  relative viability: 1.14
Vorinostat + Foretinib; first compound 2.53 µM
  relative viability: 0.342
Vorinostat + Foretinib; first compound 8 µM
  relative viability: 0.039
Vorinostat + Lapatinib; first compound 0.253 µM
  relative viability: 0.765
Vorinostat + Lapatinib; first compound 0.8 µM
  relative viability: 0.636
Vorinostat + Lapatinib; first compound 2.53 µM
  relative viability: 0.247
Vorinostat + Lapatinib; first compound 8 µM
  relative viability: 0.073
Vorinostat + Pictilisib; first compound 0.253 µM
  relative viability: 0.309
Vorinostat + Pictilisib; first compound 0.8 µM
  relative viability: 0.25
Vorinostat + Pictilisib; first compound 2.53 µM
  relative viability: 0.114
Vorinostat + Pictilisib; first compound 8 µM
  relative viability: 0.0475
Vorinostat + Crizotinib; first compound 0.253 µM
  relative viability: 0.751
Vorinostat + Crizotinib; first compound 0.8 µM
  relative viability: 0.743
Vorinostat + Crizotinib; first compound 2.53 µM
  relative viability: 0.152
Vorinostat + Crizotinib; first compound 8 µM
  relative viability: 0.0423
Vorinostat + Linsitinib; first compound 0.253 µM
  relative viability: 0.685
Vorinostat + Linsitinib; first compound 0.8 µM
  relative viability: 0.271
Vorinostat + Linsitinib; first compound 2.53 µM
  relative viability: 0.212
Vorinostat + Linsitinib; first compound 8 µM
  relative viability: 0.0566
Vorinostat + Alpelisib; first compound 0.253 µM
  relative viability: 0.769
Vorinostat + Alpelisib; first compound 0.8 µM
  relative viability: 0.512
Vorinostat + Alpelisib; first compound 2.53 µM
  relative viability: 0.224
Vorinostat + Alpelisib; first compound 8 µM
  relative viability: 0.0622
Vorinostat + Olaparib; first compound 0.253 µM
  relative viability: 0.911
Vorinostat + Olaparib; first compound 0.8 µM
  relative viability: 0.701
Vorinostat + Olaparib; first compound 2.53 µM
  relative viability: 0.405
Vorinostat + Olaparib; first compound 8 µM
  relative viability: 0.0749

## NCI-H1623
Vorinostat; 0.253 µM
  relative viability: 0.916
Vorinostat; 0.8 µM
  relative viability: 0.948
Vorinostat; 2.53 µM
  relative viability: 0.358
Vorinostat; 8 µM
  relative viability: 0.217
Vorinostat + Luminespib; first compound 0.253 µM
  relative viability: 0.529
Vorinostat + Luminespib; first compound 0.8 µM
  relative viability: 0.564
Vorinostat + Luminespib; first compound 2.53 µM
  relative viability: 0.398
Vorinostat + Luminespib; first compound 8 µM
  relative viability: 0.291
Vorinostat + Foretinib; first compound 0.253 µM
  relative viability: 0.918
Vorinostat + Foretinib; first compound 0.8 µM
  relative viability: 0.781
Vorinostat + Foretinib; first compound 2.53 µM
  relative viability: 0.42
Vorinostat + Foretinib; first compound 8 µM
  relative viability: 0.233
Vorinostat + OSI-027; first compound 0.253 µM
  relative viability: 0.462
Vorinostat + OSI-027; first compound 0.8 µM
  relative viability: 0.392
Vorinostat + OSI-027; first compound 2.53 µM
  relative viability: 0.281
Vorinostat + OSI-027; first compound 8 µM
  relative viability: 0.209
Vorinostat + Tozasertib; first compound 0.253 µM
  relative viability: 0.41
Vorinostat + Tozasertib; first compound 0.8 µM
  relative viability: 0.408
Vorinostat + Tozasertib; first compound 2.53 µM
  relative viability: 0.283
Vorinostat + Tozasertib; first compound 8 µM
  relative viability: 0.217
Vorinostat + Dasatinib; first compound 0.253 µM
  relative viability: 0.387
Vorinostat + Dasatinib; first compound 0.8 µM
  relative viability: 0.521
Vorinostat + Dasatinib; first compound 2.53 µM
  relative viability: 0.436
Vorinostat + Dasatinib; first compound 8 µM
  relative viability: 0.203
Vorinostat + Phenformin; first compound 0.253 µM
  relative viability: 0.61
Vorinostat + Phenformin; first compound 0.8 µM
  relative viability: 0.564
Vorinostat + Phenformin; first compound 2.53 µM
  relative viability: 0.462
Vorinostat + Phenformin; first compound 8 µM
  relative viability: 0.225
